Measured values as given in the NIST ThermoML archive (doi:10.1021/je900597n).

Assay: xn = mol fraction of the nth substance listed
Details: 101 kPa, Liquid; for speed of sound: Pulse-echo method

CCCNCCC [dipropylamine] + COC(C)(C)C
Details | mass density, 288.15 K [kg/m3] | mass density, 293.15 K [kg/m3] | mass density, 298.15 K [kg/m3] | mass density, 303.15 K [kg/m3] | mass density, 308.15 K [kg/m3] | speed of sound, 288.15 K [m/s] | speed of sound, 293.15 K [m/s] | speed of sound, 298.15 K [m/s] | speed of sound, 303.15 K [m/s] | speed of sound, 308.15 K [m/s]
x2 = 0 | 745.064 | 740.501 | 735.924 | 731.333 | 726.732 | 1235.1 | 1213.4 | 1191.9 | 1170.4 | 1149
x2 = 0.0455 | 744.529 | 739.961 | 735.381 | 730.779 | 726.199 | 1226.5 | 1204.6 | 1182.9 | 1161.5 | 1140.1
x2 = 0.0993 | 743.741 | 739.141 | 734.529 | 729.903 | 725.268 | 1218.5 | 1196.6 | 1174.9 | 1153.4 | 1132
x2 = 0.1886 | 743.725 | 739.088 | 734.436 | 729.765 | 725.081 | 1206.8 | 1184.9 | 1163 | 1141.4 | 1120
x2 = 0.304 | 744.015 | 739.319 | 734.607 | 729.854 | 725.082 | 1191.2 | 1169.1 | 1147.2 | 1125.5 | 1103.9
x2 = 0.3981 | 744.373 | 739.628 | 734.96 | 730.165 | 725.325 | 1179 | 1156.8 | 1134.8 | 1112.9 | 1091.2
x2 = 0.4954 | 744.92 | 740.107 | 735.272 | 730.41 | 725.531 | 1164.9 | 1142.8 | 1120.8 | 1099.1 | 1076.8
x2 = 0.5839 | 745.36 | 740.49 | 735.593 | 730.664 | 725.713 | 1152.3 | 1130 | 1107.8 | 1085.9 | 1063.8
x2 = 0.7057 | 745.893 | 740.912 | 735.904 | 730.891 | 725.831 | 1131.9 | 1109.4 | 1087 | 1064.9 | 1042.5
x2 = 0.7685 | 746.206 | 741.193 | 736.153 | 731.058 | 725.925 | 1121.7 | 1099.1 | 1076.6 | 1054.4 | 1032
x2 = 0.8876 | 746.684 | 741.588 | 736.455 | 731.289 | 726.066 | 1103.9 | 1080.8 | 1057.9 | 1035.3 | 1012.9
x2 = 0.9337 | 746.947 | 741.806 | 736.641 | 731.421 | 726.159 | 1097 | 1073.6 | 1050.7 | 1028 | 1005.4
